Test results published in PubChem BioAssay (NCI).
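Step 1: Grow cells in 96-well plates. Step 2: Expose to compound for 48 hours at 5 concentrations. Step 3: Interpolate endpoints linearly; if unreached, use highest concentration. Definition used: TGI = concentration required for complete inhibition of growth.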

Key:
Assay in all cases: growth of human tumour cells (NCI), 48 h
786-0 renal = tested on: 786-0 renal
A498 renal = tested on: A498 renal
A549 NSCLC = tested on: A549 NSCLC
ACHN renal = tested on: ACHN renal
BT-549 breast = tested on: BT-549 breast
CAKI-1 renal = tested on: CAKI-1 renal
CCRF-CEM leukemia = tested on: CCRF-CEM leukemia
COLO 205 colon = tested on: COLO 205 colon
DU-145 prostate = tested on: DU-145 prostate
EKVX NSCLC = tested on: EKVX NSCLC
HCT-116 colon = tested on: HCT-116 colon
HCT-15 colon = tested on: HCT-15 colon
HL-60(TB) leukemia = tested on: HL-60(TB) leukemia
HOP-62 NSCLC = tested on: HOP-62 NSCLC
HS 578T breast = tested on: HS 578T breast
HT29 colon = tested on: HT29 colon
IGROV1 ovarian = tested on: IGROV1 ovarian
K-562 leukemia = tested on: K-562 leukemia
KM12 colon = tested on: KM12 colon
LOX IMVI melanoma = tested on: LOX IMVI melanoma
M14 melanoma = tested on: M14 melanoma
MCF7 breast = tested on: MCF7 breast
MDA-MB-231 breast = tested on: MDA-MB-231 breast
MDA-MB-435 = tested on: MDA-MB-435
MDA-N = tested on: MDA-N
MOLT-4 leukemia = tested on: MOLT-4 leukemia
NCI-H226 lung = tested on: NCI-H226 lung
NCI-H23 lung = tested on: NCI-H23 lung
NCI-H460 lung = tested on: NCI-H460 lung
NCI-H522 lung = tested on: NCI-H522 lung
NCI/ADR-RES ovarian = tested on: NCI/ADR-RES ovarian
OVCAR-3 ovarian = tested on: OVCAR-3 ovarian
OVCAR-4 ovarian = tested on: OVCAR-4 ovarian
OVCAR-5 ovarian = tested on: OVCAR-5 ovarian
OVCAR-8 ovarian = tested on: OVCAR-8 ovarian
PC-3 prostate = tested on: PC-3 prostate
RPMI-8226 leukemia = tested on: RPMI-8226 leukemia
SF-268 CNS = tested on: SF-268 CNS
SF-539 CNS = tested on: SF-539 CNS
SK-MEL-2 melanoma = tested on: SK-MEL-2 melanoma
SK-MEL-28 melanoma = tested on: SK-MEL-28 melanoma
SK-MEL-5 melanoma = tested on: SK-MEL-5 melanoma
SK-OV-3 ovarian = tested on: SK-OV-3 ovarian
SN12C renal = tested on: SN12C renal
SNB-19 CNS = tested on: SNB-19 CNS
SNB-75 CNS = tested on: SNB-75 CNS
SR leukemia = tested on: SR leukemia
SW-620 colon = tested on: SW-620 colon
T-47D breast = tested on: T-47D breast
TK-10 renal = tested on: TK-10 renal
U251 CNS = tested on: U251 CNS
UACC-257 melanoma = tested on: UACC-257 melanoma
UACC-62 melanoma = tested on: UACC-62 melanoma
UO-31 renal = tested on: UO-31 renal
HCC-2998 colon = tested on: HCC-2998 colon
HOP-92 NSCLC = tested on: HOP-92 NSCLC
MALME-3M melanoma = tested on: MALME-3M melanoma
RXF 393 renal = tested on: RXF 393 renal
SF-295 CNS = tested on: SF-295 CNS

SMILES: N=c1ccc2nc(N)nn(O)c-2c1
- TGI (786-0 renal): > 100 µM
- TGI (A498 renal): > 100 µM
- TGI (A549 NSCLC): > 100 µM
- TGI (ACHN renal): > 100 µM
- TGI (BT-549 breast): > 100 µM
- TGI (CAKI-1 renal): > 100 µM
- TGI (CCRF-CEM leukemia): > 100 µM
- TGI (COLO 205 colon): > 100 µM
- TGI (DU-145 prostate): > 100 µM
- TGI (EKVX NSCLC): > 100 µM
- TGI (HCT-116 colon): > 100 µM
- TGI (HCT-15 colon): > 100 µM
- TGI (HL-60(TB) leukemia): > 100 µM
- TGI (HOP-62 NSCLC): > 100 µM
- TGI (HS 578T breast): > 100 µM
- TGI (HT29 colon): > 100 µM
- TGI (IGROV1 ovarian): > 100 µM
- TGI (K-562 leukemia): > 100 µM
- TGI (KM12 colon): > 100 µM
- TGI (LOX IMVI melanoma): > 100 µM
- TGI (M14 melanoma): > 100 µM
- TGI (MCF7 breast): > 100 µM
- TGI (MDA-MB-231 breast): > 100 µM
- TGI (MDA-MB-435): > 100 µM
- TGI (MDA-N): > 100 µM
- TGI (MOLT-4 leukemia): > 100 µM
- TGI (NCI-H226 lung): > 100 µM
- TGI (NCI-H23 lung): > 100 µM
- TGI (NCI-H460 lung): > 100 µM
- TGI (NCI-H522 lung): > 100 µM
- TGI (NCI/ADR-RES ovarian): > 100 µM
- TGI (OVCAR-3 ovarian): > 100 µM
- TGI (OVCAR-4 ovarian): > 100 µM
- TGI (OVCAR-5 ovarian): > 100 µM
- TGI (OVCAR-8 ovarian): > 100 µM
- TGI (PC-3 prostate): > 100 µM
- TGI (RPMI-8226 leukemia): > 100 µM
- TGI (SF-268 CNS): > 100 µM
- TGI (SF-539 CNS): > 100 µM
- TGI (SK-MEL-2 melanoma): > 100 µM
- TGI (SK-MEL-28 melanoma): > 100 µM
- TGI (SK-MEL-5 melanoma): > 100 µM
- TGI (SK-OV-3 ovarian): > 100 µM
- TGI (SN12C renal): > 100 µM
- TGI (SNB-19 CNS): > 100 µM
- TGI (SNB-75 CNS): > 100 µM
- TGI (SR leukemia): > 100 µM
- TGI (SW-620 colon): > 100 µM
- TGI (T-47D breast): > 100 µM
- TGI (TK-10 renal): > 100 µM
- TGI (U251 CNS): > 100 µM
- TGI (UACC-257 melanoma): > 100 µM
- TGI (UACC-62 melanoma): > 100 µM
- TGI (UO-31 renal): > 100 µM

SMILES: CC1=C[C@@H](C)C[C@]2(C)CC[C@H](O2)[C@]23CC[C@](CO)(C[C@H](O2)[C@@H]2O[C@@](C)(CC2=O)[C@@H](O)[C@H]2CC[C@@]4(CCC[C@@H](O4)[C@H](C)C(=O)O[C@H]4C[C@H]([C@]5(O)OCC[C@H](C)[C@@H]5O)O[C@H]4C=C1)O2)O3
- TGI (A498 renal): 0.0156 µM
- TGI (A549 NSCLC): > 10 µM
- TGI (ACHN renal): > 10 µM
- TGI (BT-549 breast): 0.258 µM
- TGI (CAKI-1 renal): 0.107 µM
- TGI (CCRF-CEM leukemia): > 9.53 µM
- TGI (COLO 205 colon): 0.00377 µM
- TGI (DU-145 prostate): > 10 µM
- TGI (HCC-2998 colon): > 10 µM
- TGI (HCT-116 colon): > 10 µM
- TGI (HCT-15 colon): > 10 µM
- TGI (HL-60(TB) leukemia): 9.73 µM
- TGI (HOP-62 NSCLC): 0.041 µM
- TGI (HOP-92 NSCLC): 0.00697 µM
- TGI (HS 578T breast): 0.00776 µM
- TGI (HT29 colon): > 10 µM
- TGI (IGROV1 ovarian): 0.0561 µM
- TGI (K-562 leukemia): > 10 µM
- TGI (KM12 colon): > 10 µM
- TGI (LOX IMVI melanoma): 0.155 µM
- TGI (M14 melanoma): > 10 µM
- TGI (MALME-3M melanoma): 0.196 µM
- TGI (MCF7 breast): > 10 µM
- TGI (MDA-MB-231 breast): 0.217 µM
- TGI (MDA-MB-435): > 10 µM
- TGI (MDA-N): > 10 µM
- TGI (MOLT-4 leukemia): > 10 µM
- TGI (NCI-H460 lung): > 10 µM
- TGI (NCI-H522 lung): > 2.1 µM
- TGI (NCI/ADR-RES ovarian): > 10 µM
- TGI (OVCAR-3 ovarian): 0.102 µM
- TGI (OVCAR-4 ovarian): > 10 µM
- TGI (OVCAR-5 ovarian): > 10 µM
- TGI (OVCAR-8 ovarian): > 4.19 µM
- TGI (PC-3 prostate): > 10 µM
- TGI (RPMI-8226 leukemia): > 10 µM
- TGI (RXF 393 renal): 0.0801 µM
- TGI (SF-268 CNS): 0.0252 µM
- TGI (SF-295 CNS): > 10 µM
- TGI (SK-MEL-2 melanoma): > 2.45 µM
- TGI (SK-MEL-28 melanoma): 0.0391 µM
- TGI (SK-MEL-5 melanoma): > 10 µM
- TGI (SK-OV-3 ovarian): 0.159 µM
- TGI (SN12C renal): > 10 µM
- TGI (SNB-75 CNS): 0.00179 µM
- TGI (SR leukemia): > 10 µM
- TGI (SW-620 colon): > 10 µM
- TGI (T-47D breast): > 10 µM
- TGI (TK-10 renal): 0.0714 µM
- TGI (U251 CNS): 0.438 µM
- TGI (UACC-62 melanoma): > 9.63 µM
- TGI (UO-31 renal): 0.207 µM
